Patent US10117950B2, “Compounds and compositions for the treatment of ocular disorders” (Graybug Vision, Inc., priority 2015, dated 2018)
Where two headings read alike, the source gives them in different places.

Tests used:
[1] = In vitro stability of brinzolamide and dorzolamide NCEs (RP-HPLC); settings: PBS pH 7, 10% DMSO
Procedure: The samples were incubated at 37° C. or 50° C. to simulate physiological and accelerated degradation conditions, respectively. At various time points, 100 μL of the solution was collected, diluted 10-fold with MeCN+0.1% formic acid, filtered through a 0.2 μm nylon syringe filter and analyzed by RP-HPLC.

[2] = Determination of drug solubility; type: physicochemical; settings: for solubility: thermodynamic from solid
Procedure: For each test, approximately 5-10 mg was transferred to a 10 mL glass vial. Aqueous or organic solvent was added to each vial to achieve an overall concentration of 50 mg/mL. After vortexing aggressively for 2-3 minutes and sonicating in a bath sonicator for 5 minutes, undissolved drug was spun down at 1200 rpm for 5 minutes to generate a pellet. The supernatant was collected and filtered through a 0.2 μm nylon syringe filter into HPLC vials for drug content analysis. Drug concentration was determined by comparing against a standard calibration curve.

[3] = molecular target: T1, bovine erythrocyte carbonic anhydrase II (Bos taurus, UniProt P00921); experiment: Carbonic anhydrase II inhibition, colorimetric 4-nitrophenyl acetate hydrolysis; type: biochemical; settings: for IC50: n = 2
T1 construct: purified bovine erythrocyte carbonic anhydrase II; from tissue; host or cells: bovine erythrocytes
T1 sequence (P00921 whole entry): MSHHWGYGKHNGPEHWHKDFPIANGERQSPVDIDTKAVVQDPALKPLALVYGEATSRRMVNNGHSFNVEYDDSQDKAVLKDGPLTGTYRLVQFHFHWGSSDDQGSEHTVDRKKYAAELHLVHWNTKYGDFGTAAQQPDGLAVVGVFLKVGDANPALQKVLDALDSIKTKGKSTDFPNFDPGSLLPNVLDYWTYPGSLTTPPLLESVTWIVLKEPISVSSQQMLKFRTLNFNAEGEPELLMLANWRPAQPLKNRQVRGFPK
Procedure: The catalytic activity of carbonic anhydrase II was assessed by a colorimetric method, in which 4-nitrophenyl acetate is hydrolyzed to acetate and nitrophenolate. The nitrophenolate ionizes to generate a bright yellow anion that is readily detected by measuring its absorbance at 350-400 nm. […] Acetazolamide was added as a positive control and 100% DMSO was added as a negative control. The reaction was initiated with the addition of 20 μL of 4-nitrophenyl acetate (0.7 mM in ethanol).

[4] = In vitro stability of bifunctional conjugates (HPLC, 254 nm); type: physicochemical; settings: PBS pH 7.0, 20% DMSO; for degradation kinetics: one day
Procedure: Briefly, brinzolamide-PLA (n=4)-succinate-5-hydroxy-sunitinib (60-1) or dorzolamide-PLA (n=4)-succinate-5-hydroxy-sunitinib (58-5) was first dissolved in a solution of PBS (pH 7.0) with 20% DMSO (v/v) and incubated at 37° C. or 60° C. for 14 days.

[5] = In vitro stability of latanoprost NCEs (RP-HPLC); type: physicochemical; settings: PBS pH 7.0, 20% DMSO, 37° C., 14 days
Procedure: Latanoprost and latanoprost-PLA conjugates were solubilized with the addition of 20% (v/v) DMSO and subsequently suspended to a concentration of 1 mg/mL in PBS (pH 7.0).

[6] = DCM, organic solvent or mixture, read-out: Solubility DCM
[7] = DMSO, organic solvent or mixture, read-out: Solubility DMSO
[8] = water / aqueous solvent, read-out: Solubility Water

Compound | in vitro stability / degradation kinetics ([1]; 37° C. and accelerated conditions, 14-19 days) | primary compound remaining ([1]; 37° C., day 7) | solubility [2, 6] [mg/mL] | solubility [2, 7] [mg/mL] | solubility [2, 8] [mg/mL] | IC50 [3] [nM] | degradation kinetics [4] | carbonic anhydrase inhibitory activity [3] | PLA (n=4) signal ([4]; after one day of incubation) [%] | PLA (n=4) signal ([4]; before incubation) [%] | in vitro stability [5] | solubility ([2]; organic solvent (not named), organic solvent or mixture, organic solvent, read-out: organic solubility) [mg/mL] | Solubility Water ([2]; water / aqueous solvent)
CCN[C@H]1CN(CCCOC)S(=O)(=O)c2sc(S(=O)(=O)NC(=O)[C@H](C)OC(=O)[C@H](C)OC(=O)[C@H](C)O)cc21 [34-2, brinzolamide-PLA (n=3)] | minimal degradation to the parent compound | approximately 2.7% | > 50 | > 50 | > 50 | 21.5 ± 11.2 | – | – | – | – | – | – | –
CCN[C@H]1C[C@H](C)S(=O)(=O)c2sc(S(=O)(=O)NC(=O)[C@H](C)OC(=O)[C@H](C)OC(=O)[C@H](C)OC(=O)[C@H](C)OC(=O)CCC(=O)Oc3ccc4c(c3)/C(=C/c3[nH]c(C)c(C(=O)NCCN(CC)CC)c3C)C(=O)N4)cc21 [58-5, dorzolamide-PLA(n=4)-succinate-5-hydroxy-Sunitinib] | – | – | – | > 50 | < 1 | 222 ± 36.3 | rapidly decreasing after one day | lowest inhibitory activity | – | – | – | – | –
CCN[C@H]1CN(CCCOC)S(=O)(=O)c2sc(S(=O)(=O)NC(=O)[C@H](C)OC(=O)[C@H](C)OC(=O)[C@H](C)OC(=O)[C@H](C)OC(=O)CCC(=O)Oc3ccc4c(c3)/C(=C/c3[nH]c(C)c(C(=O)NCCN(CC)CC)c3C)C(=O)N4)cc21 [60-1, brinzolamide-PLA(n=4)-succinate-5-hydroxy-Sunitinib] | – | – | – | > 50 | < 1 | – | rapidly hydrolyzed | – | 15.7 | 83 | – | – | –
CC(C)OC(=O)CCC/C=C\C[C@@H]1[C@@H](CC[C@@H](O)CCc2ccccc2)[C@H](O)C[C@@H]1O [Latanoprost, latanoprost, reference compound] | – | – | > 50 | > 50 | < 1 | – | – | – | – | – | good stability | > 50 | very low aqueous solubility
